Where two headings read alike, the source gives them in different places. Where no end group is shown, it is not given here.
Tests used:
[1] = biological target: p53 DBD (Homo sapiens, UniProt P04637); settings: cited from earlier work
[2] = tested on: H1299 cells stably transfected with Mut-p53 (ts) A135V; assay: qRT-PCR of p53 target genes (p21, PUMA, Mdm2); type: cell-based; settings: 5 ug/ml, 18 hours, 37° C., relative to non-treated cells; positive control (32° C.) 9-11 fold
Procedure: H1299 cells are p53 null and are widely used for p53 research. H1299 cells stably transfected with Mut-p53 (ts) A135V were used. […] 18 hours later cells were harvested, followed by extraction of RNA, cDNA synthesis and real time PCR analysis. The expression level of 3 representative p53 target genes, p21, PUMA and Mdm2, was examined.
For the in vivo functional screening, several experimental systems were used. One system is based on H1299 cells, which are p53 null and are widely used for p53 research. H1299 cells stably transfected with Mut-p53 (ts) A135V were used. This form of p53 is a temperature sensitive mutant, which has a mutant conformation at 37° C. and a WT conformation at 32° C. […] 18 hours later cells were harvested, followed by extraction of RNA, cDNA synthesis and real time PCR analysis. The expression level of 3 representative p53 target genes was examined; p21, PUMA and Mdm2. Expression of genes in H1299-ts at 37° C. is considered as background level and all results are normalized to it, and also to the GAPDH housekeeping gene. Expression of genes in H1299-ts at 32° C. represents WT p53 conformation and therefore serves as a positive control.
Several tested peptides indeed caused a significant increase in the expression of p21, PUMA and Mdm2. This was the case for pCAP-130, pCAP-135, pCAP-142, pCAP-144 and pCAP-148. […]

[3] = tested on: SKBR3 cells expressing endogenous R175H p53; settings: SKBR3 ShCon cells, 5 ug/ml, 18 hours
Procedure: FIG. 16 is a bar graph illustrating the effect of the indicated peptides on activation of Mut-p53 by measuring transactivation of p53 target genes as determined by qRT-PCR. SKBR3 ShCon cells and SKBR3 Shp53 cells knocked down for p53 expression were used. The cells were plated in 12-well dishes and the indicated peptides were added directly to the medium at a concentration of 5 ug/ml. 18 hours later cells were harvested, followed by qRT-PCR analysis. Expression level of p21, PUMA and Mdm2 was evaluated. FIG. 16 illustrates the relative fold induction of transcription of the tested genes in the various samples relative to their transcription level in non-treated cells. GAPDH mRNA was measured in parallel as a control.
RNA was obtained using Macherey-Nagel NucleoSpin RNA II Kit on cells pellet according to the manufacturer's protocol. Aliquots of 0.4-1 μg were reverse transcribed using Bio-RT 2000 (Bio-Lab) and random hexamer primers. Quantitative real-time polymerase chain reaction (QRT-PCR) was performed on an ABI 7300 instrument (Applied Biosystems) using PerfeCTa SYBR Green FastMix ROX (Quanta). RT-PCR primers used are presented in Table 1 (primers sequences are presented 5′ to 3′).
The tested peptides were further tested for their effect on p53 target gene expression in SKBR3 cells expressing endogenous R175H p53. […] In essence, these cells were plated in 12-well dishes; the indicated peptides were added directly to the medium at a concentration of 5 ug/ml. 18 hours later cells were harvested, followed by qRT-PCR analysis. Expression level of p21, PUMA and Mdm2 was evaluated. Expression of those genes in non-treated cells is considered background and all results were normalized to it, as well as to GAPDH.

[4] = Crystal violet viability assay; type: cell-based; settings: human, shp53 (Mut-p53 knockdown) subline
From the text: FIGS. 15A and 15B are bar graphs illustrating the effect of the various indicated peptides on the viability of breast cancer cells expressing different Mut-p53 isoforms, as determined by crystal violet assay. FIG. 15A: MDA-MB-231 cells expressing Mut-p53 with a mutation at position 280 of the DBD. FIG. 15B: SKBR3 cells expressing Mut-p53 with mutation at position 175 within the DBD. The bar graphs in FIGS. 15A and 15B show for each tested peptide the optical density reads at 595 nm, reflecting the number of cells in the plate after treatment, normalized to the non-treated (NT) samples.
Cells were cultured in 96 wells plates with 2500-4000 cells/well in 0.1 ml and incubated overnight at 37° C. in order to adhere to the plate. Serial dilutions of different peptides (0.5 μg/ml) were added in 0.1 ml aliquots and the plates incubated for additional 48 h at 37° C. Then medium was removed and cell lysis was determined by staining the cells with crystal violet (0.5%) in methanol/water (1:4, v/v), 50 μl each well, for 10 min, followed by 3 washes with PBS. Afterwards, 10% acetic acid (50 μl) was added to each well and shaken for 10 min. Then, automatic plate reading was performed at 595 nm.
Experiments using different cancer cell lines expressing endogenously different p53 mutant isoforms were performed. FIGS. 15A and 15B illustrate two representative experiments performed on MDA-MB-231 (FIG. 15A) and SKBR3 (FIG. 15B) breast cancer cells expressing Mut-p53 with mutations at positions 280 or 175, respectively, within the DNA Binding Domain (DBD). To examine the peptides' specificity for Mut-p53, the control used was such cells with a knockdown of Mut-p53 (shp53).

[5] = Solubility in DMSO; type: physicochemical; settings: at a concentration of 10 mg/ml
From the text: Addition of a poly arginine tail to peptides dramatically increases the solubility of peptides with a high content of hydrophobic amino acids. […] Lead peptides were further subjected to rigorous examination of effects on cell viability in a Mut-p53 specific manner.

[6] = biological target: T1, Mut-p53 (R175H p53) (Homo sapiens, UniProt P04637, R175H); assay: p53/DNA binding ELISA kit (R&D), binding to p53-RE DNA; type: biochemical; settings: H1299-R175H p53 cell extracts, vs background (NT)
T1 construct: a hot spot full length mutant p53 Mut-p53 R175H (R175H p53); expressed in transfected cells; host or cells: H1299 (p53-null) cells stably overexpressing R175H p53; cell extract
From the text: A commercial p53/DNA binding kit (R&D) was used, according to manufacturer instructions. Briefly, 96 well plates were coated with anti-p53 antibody overnight. Cell extracts containing p53 were reacted with an oligonucleotide that contains a p53 consensus binding site, labeled with biotin, in the presence or absence (NT) of test peptides. WT p53 is expected to bind this DNA binding site as well as to the antibody coating the test wells of the plate. Excess p53 and oligos are washed away and streptavidin-HRP is used to quantify the amount of oligos in the well, which is proportional to the DNA bound by p53. TMB assay was performed to determine HRP levels (450 nm). The results are presented as relative absorbance (at 450 nm) (Y-Axis) of each tested sample. MCF7 and the H1299-Mut-p53 (ts) A135V cells serve as positive controls for WT p53.
For these experiments, a commercial p53/DNA binding kit of “R&D” (Cat-DYC1355-5 Lot-1273366FA) was used, in accordance with manufacturer guide lines. Briefly, 96 well plates are coated with anti-p53 antibody overnight. Cell extracts containing p53 are reacted with an oligonucleotide that contains a p53 consensus binding site (provided in the kit), labeled with biotin, in the presence or absenc.
e (NT) of test peptides. WT p53 is expected to bind this DNA binding site as well as to the antibody coating the test wells of the plate. Excess p53 and oligos were washed away and streptavidin-HRP was used to quantify the amount of oligos in the well, which is proportional to the DNA bound by p53. TMB assay was performed to determine HRP (ES001-1L-K) levels (450 nm).
To measure the effect of the tested peptides on DNA binding of Mut-p53, a commercial ELISA kit, (R&D Systems DYC1355-5, Lot-1273366FA), was used as a high-throughput assay to quantify p53 activation. This kit uses a 96-well plate format. The kit was used according to manufacturer's instructions. Wells were coated with anti-p53 antibody overnight. Cell extracts containing p53 were reacted with a biotin labeled oligonucleotide containing a p53 consensus binding site (included in the kit). WT p53 is expected to bind this oligo as well as the antibody coating the wells. Excess p53 and oligo were washed away in wash buffer (0.05% Tween 20 in PBS, pH 7.2-7.4; R&D Systems, Catalog #WA126). Then, streptavidin-HRP (R&D Systems, Part 890803, provided in the kit) was added for 15-45 min to quantify the amount of oligo in the well, which is proportional to the DNA bound by p53. If the addition of a peptide to Mut-p53 extracts increases ELISA reading compared to background, this peptide is considered as functionally effective and may be selected for further analysis. […] As with the conformational screening, MCF7 and the H1299-Mut-p53 (ts) A135V cells served as positive controls for WT p53. Extracts were added to the wells coated with αp53-Ab, and after several washing steps, streptavidin-HRP was added for 1 hour, and then plates were washed again and TMB (substrate to HRP) assay was performed.

[7] = biological target: T2, R175H p53 (Homo sapiens, UniProt P04637, R175H); assay: TK-RGC-luc luciferase reporter assay in H1299 p53−/− cells; type: cell-based; settings: peptides added 24 hours after transfection, read at 48 hours
T2 construct: a hot spot full length mutant p53 Mut-p53 R175H (R175H p53); expressed in transfected cells; host or cells: H1299 p53-/- cells, transient transfection
Procedure: (§1) FIG. 12 is a bar graph illustrating the relative luciferase activity (cLuc/gLuc) as measured in the various tested samples. Transient transfection of H1299 p53^−/− cells was performed with plasmids expressing WT p53, R175H p53, R249S p53 or empty vector as control, together with TK-RGC-luc, where luciferase expression is under control of a tandem array of multiple p53-responsive elements. 24 hours after transfection, cells were treated with the test peptides. 48 hours after transfection, a sample of the culture medium was taken for bioluminescence measurements.
(§2) The oligonucleotide (RGC-W) that has the sequence 5′-[…]-3′ (SEQ ID NO:362), and the oligonucleotide mutant RGC oligonucleotide (RGC-M) that has the sequence 5′-[…]-3′ (SEQ ID NO:363), are both derived from Kern et al. (Kern, S. E., et al., Identification of p53 as a sequence-specific DNA-binding protein. Science, 1991. 252(5013): p. 1708-11), and serve as a consensus binding sites for WT p53.
(§3) These motifs were cloned into the KPN and Eco53IK sites in pCLuc Mini-TK 2 Vector (NEB, Cat No. N0324S ). The Luciferase construct was used to assess transcriptional activation of p53 in test cells.
(§4) H1299 p53-null cells were cultured overnight and then transfected with the luciferase constructs using MaxFect Transfection Agent (Mediatech) according to the manufacturer's protocol. Prior to the transfection, cell medium was exchanged to OPTI-MEM.
(§5) The cells were treated with different peptides 24 hours after transfection. After additional 24 hours, growth medium was collected to 96 black plates: 40 μl for Cluc assay, and 20 μl for Gluc assay. Assay was performed using Turner BioSystems Modulus Microplate. Value was calculated by Cluc/gluc/NT (non-treated cells).
(§6) As additional screening strategy used to identify reactivating peptides was performed in vivo and is based on a reporter gene assay. It measures p53 transcriptional activity by quantifying the activity of a reporter gene, placed under the control of a promoter containing 17 repeats of a p53 consensus binding site (RGC). The luciferase assay is performed on living cells and therefore provides an indication on the effect of test peptides on Mut-p53 function in the context of intact cells.
(§7) For the in vivo luciferase based screening, H1299 cells were used. Transient transfection of these p53^−/− cells was performed with vectors expressing WT p53, R175H p53, R249S p53 or empty vector as control (Suad, O., et al., Structural basis of restoring sequence-specific DNA binding and transactivation to mutant p53 by suppressor mutations. J. Mol. Biol., 2009. 385(1): p. 249-65). Cells were also co-transfected with TK-RGC-luc (CAT. No. NEB, N0324S). 24 hours after transfection, cells were treated with the test peptides. […]

[8] = biological target: T3, R249S p53 (Homo sapiens, UniProt P04637, R249S); assay: as above; type: cell-based; settings: peptides added 24 hours after transfection, read at 48 hours
T3 construct: expressed in transfected cells; host or cells: H1299 p53-/- cells, transient transfection
Procedure: as §1, §2, §3, §4, §5, §6, §7

COc1ccc(/C=C/c2nc(NCCCN(C)C)c3ccccc3n2)cc1 [CP-31398]
binding to the p53 DBD by NMR [1]: failed to detect any binding

GGGGGGGGGRRRRRRR [pCAP-76, negative control peptide]
induction of transcription of p53 target genes p21, PUMA and Mdm2 [2]: did not cause induction of p53 targets

IRGRIIRRRRRRRRRR [pCAP-155]
transactivation of p53 target genes (p21, PUMA, Mdm2) [3]: among the highest transactivation levels | cytotoxicity at 48 h ([4]; MDA-MB-231 shp53 (Mut-p53 knockdown) breast cancer cells, read-out: reduction in viability, MDA-MB-231 shp53 cells): 30 to 40% | cytotoxicity at 48 h ([4]; SKBR3 shp53 (Mut-p53 knockdown) breast cancer cells, read-out: reduction in viability, SKBR3 shp53 cells): 30 to 40%

YRRLLIGMMW [pCAP-25]
solubility in DMSO [5]: insoluble

TRILCIVRKKRRQRRRRGDR [pCAP-75]
binding of H1299-R175H p53 extracts to p53-RE DNA [6]: elevate the binding of H1299-R175H p53 extracts to p53-RE DNA | transcription from TK-RGC-luc in the presence of R175H p53 [7]: induce transcription from TK-RGC-luc | transcription from TK-RGC-luc in the presence of R249S p53 [8]: induce transcription from TK-RGC-luc

Source: patent US11028127B2, “Peptides capable of reactivating p53 mutants” (Yeda Research and Development Co. Ltd., priority 2013, dated 2021)
